Results taken from patent US20240335569A1, “FIBROBLAST ACTIVATION PROTEIN INHIBITORS AND USE THEREOF” (3 B PHARMACEUTICALS GMBH, priority 2021, published 2024).
Like-named read-outs stand apart in the source and are kept apart here.

How the values were obtained:
[1] = molecular target: FAP-expressing human WI-38 fibroblasts (Homo sapiens (Human), UniProt Q12884); experiment: FACS binding assay (competitive, Cy5-labeled 3BP-2935); settings: FAP-expressing WI-38 fibroblasts
Protocol: In order to determine binding of compounds according to the present invention to FAP-expressing cells, a competitive FACS binding assay was established. […] Cells were diluted in FACS buffer to a final concentration of 100.000 cells per ml and 200 μl of the cell suspension are transferred to a u-shaped non-binding 96-well plate (Greiner). […] Cell were washed twice with FACS buffer (see above) and resuspended in 200 μl FACS buffer. Cells were analyzed in an Attune NxT flow cytometer (Thermo Fisher Scientific). Median fluorescence intensities (Cy5 channel) were calculated by Attune NxT software and plotted against test compound concentrations. Four parameter logistic (4PL) curve fitting and pIC50 calculations were performed using ActivityBase software.

[2] = molecular target: T1, Human recombinant FAP (Homo sapiens (Human), UniProt Q12884); experiment: FAP protease activity assay (human), FRET-based; type: biochemical; settings: recombinant human FAP, FRET protease activity
Protocol: (§1) In order to determine the inhibitory activity a FRET-based FAP protease activity assay was established.
Four parameter logistic (4PL) curve fitting and pIC50 calculations were performed using ActivityBase software (IDBS).
Target sequence in this assay (Q12884 26-760): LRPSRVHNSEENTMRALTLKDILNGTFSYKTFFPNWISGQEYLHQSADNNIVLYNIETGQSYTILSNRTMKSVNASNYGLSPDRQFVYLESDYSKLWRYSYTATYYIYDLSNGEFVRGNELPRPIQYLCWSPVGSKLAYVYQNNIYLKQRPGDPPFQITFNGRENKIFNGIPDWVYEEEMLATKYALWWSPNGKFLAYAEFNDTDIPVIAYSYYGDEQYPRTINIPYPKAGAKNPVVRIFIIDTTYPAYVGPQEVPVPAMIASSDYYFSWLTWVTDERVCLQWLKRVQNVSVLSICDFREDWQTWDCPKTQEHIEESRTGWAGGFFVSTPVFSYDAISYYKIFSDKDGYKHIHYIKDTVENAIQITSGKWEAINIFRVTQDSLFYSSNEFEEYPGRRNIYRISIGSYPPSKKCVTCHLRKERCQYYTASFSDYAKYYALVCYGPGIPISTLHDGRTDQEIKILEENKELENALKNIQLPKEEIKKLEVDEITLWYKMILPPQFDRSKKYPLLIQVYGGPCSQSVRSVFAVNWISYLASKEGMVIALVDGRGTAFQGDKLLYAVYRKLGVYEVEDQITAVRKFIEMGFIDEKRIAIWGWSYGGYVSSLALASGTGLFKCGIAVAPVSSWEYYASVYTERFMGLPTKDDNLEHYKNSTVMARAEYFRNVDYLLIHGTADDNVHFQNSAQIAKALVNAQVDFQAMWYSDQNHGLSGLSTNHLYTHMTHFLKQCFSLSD

[3] = molecular target: T1, Human recombinant FAP; experiment: Surface plasmon resonance assay (Biacore T200, SCK); type: binding; settings: for HL [min] (Biacore): SPR dissociation half-life
Protocol: Surface plasmon resonance studies were performed using a Biacore™ T200 SPR system (Cytiva, formerly GE Healthcare). Briefly, polarized light is directed towards a gold-labeled sensor surface, and minimum intensity reflected light is detected. The angle of reflected light changes as molecules bind and dissociate. […] Test compounds are contacted with the loaded surface, and a real-time interaction profile with the FAP ligand is recorded in a sensorgram. In real-time, the association and dissociation of a binding interaction is measured, enabling calculation of association and dissociation rate constants and the corresponding affinity constants. Importantly, a background response is generated due to the difference in the refractive indices of the running and sample buffers, as well as unspecific binding of the test compounds to the flow cell surface. This background is measured and subtracted by running the sample on a control flow cell coated with the same density of capture antibody in the absence of immobilized FAP. Furthermore, baseline drift correction of the binding data is performed, which is caused by slow dissociation of the captured FAP from the immobilized antibody. This drift is measured by injecting running buffer through a flow cell with the antibody and FAP immobilized to the sensor surface.
Biacore™ CM5 sensor chips were used. […] A 150 μL aliquot was transferred into plastic vials and placed into the sample rack of the Biacore™ T200 instrument. Amine Coupling Kit Reagent solutions were transferred into plastic vials and placed into the sample rack: 90 μL of 0.4 M 1-ethyl-3-(3-dimethylaminopropyl) carbodiimide (EDC), and 90 μL of 0.1 M N-hydroxysuccinimide (NHS). A 130 μL aliquot of 1 M ethanolamine-HCl, pH 8.5, was transferred into plastic vials and placed into the sample rack. The Biacore™ liquid system was set-up as follows: Separate bottles containing distilled water (1 L), Running Buffer (500 mL), as well as an empty bottle for waste were placed onto the buffer tray. A preinstalled program for immobilization was used, with an immobilization level of 7000 RU. Immobilization was performed at 25° C. The immobilization procedure of anti-FAP antibodies was performed, as described in the Table 4.
Human recombinant FAP was diluted in Running Buffer to a final concentration of 20 μg/mL. A 100 μL aliquot of human FAP-Working-Solution was transferred into plastic vials and placed into a sample rack. A 0.5 mM Compound-Stock-Solution was prepared by dissolving each compound in DMSO. For each test compound, Compound-Stock-Solutions were diluted in Running Buffer (HBST) at 500 nM and further diluted with HBST-DMSO Buffer (0.1% DMSO). SPR binding analyses for binary complexes were performed in SCK mode at 25° C. Following three SCK measurements, a baseline drift was assessed by injecting running buffer through a flow cell, with the antibody and FAP immobilized to the sensor surface.
For each test compound, SPR raw data in the form of resonance units (RU) were plotted as sensorgrams using the Biacore™ T200 control software. The signal from the blank sensorgram was subtracted from that of the test compound sensorgram (blank corrected). The blank corrected sensorgram was corrected for baseline drift by subtracting the sensorgram of a SCK run without the test compound (running buffer only). The association rate (kon), dissociation rate (koff), dissociation constant (KD), and t1/2 were calculated from Blank-normalized SPR data using the 1:1 Langmuir binding model from the Biacore™ T200 evaluation software. Raw data and fit results were imported as text files in IDBS. The pKD value (negative decadic logarithm of dissociation constant) was calculated in the IDBS excel template.
Target sequence in this assay (Q12884 whole entry): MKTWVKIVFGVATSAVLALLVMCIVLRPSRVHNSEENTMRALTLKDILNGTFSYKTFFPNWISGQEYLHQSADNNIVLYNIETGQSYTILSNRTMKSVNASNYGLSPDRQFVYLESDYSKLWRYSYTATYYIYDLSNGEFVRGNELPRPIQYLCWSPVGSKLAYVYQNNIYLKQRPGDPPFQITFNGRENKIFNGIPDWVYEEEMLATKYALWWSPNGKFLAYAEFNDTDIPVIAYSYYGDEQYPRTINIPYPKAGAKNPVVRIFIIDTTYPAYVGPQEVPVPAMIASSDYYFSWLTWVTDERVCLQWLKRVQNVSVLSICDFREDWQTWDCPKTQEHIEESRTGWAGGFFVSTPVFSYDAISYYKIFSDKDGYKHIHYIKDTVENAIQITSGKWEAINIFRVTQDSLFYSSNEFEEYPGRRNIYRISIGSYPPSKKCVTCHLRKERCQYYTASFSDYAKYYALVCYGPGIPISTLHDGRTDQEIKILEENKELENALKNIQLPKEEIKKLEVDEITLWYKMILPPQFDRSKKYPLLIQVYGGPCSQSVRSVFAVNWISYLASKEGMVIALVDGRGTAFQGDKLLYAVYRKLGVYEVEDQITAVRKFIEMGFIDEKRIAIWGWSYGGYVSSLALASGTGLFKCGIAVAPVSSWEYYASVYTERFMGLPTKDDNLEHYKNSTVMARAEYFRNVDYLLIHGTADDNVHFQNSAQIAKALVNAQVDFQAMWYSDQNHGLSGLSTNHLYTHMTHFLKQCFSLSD

[4] = molecular target: Recombinant mouse FAP (Mus musculus (Mouse), UniProt P97321); experiment: FAP protease activity assay (mouse), FRET-based; type: biochemical; settings: recombinant mouse FAP, FRET protease activity
Sequence of Recombinant mouse FAP (P97321 whole entry): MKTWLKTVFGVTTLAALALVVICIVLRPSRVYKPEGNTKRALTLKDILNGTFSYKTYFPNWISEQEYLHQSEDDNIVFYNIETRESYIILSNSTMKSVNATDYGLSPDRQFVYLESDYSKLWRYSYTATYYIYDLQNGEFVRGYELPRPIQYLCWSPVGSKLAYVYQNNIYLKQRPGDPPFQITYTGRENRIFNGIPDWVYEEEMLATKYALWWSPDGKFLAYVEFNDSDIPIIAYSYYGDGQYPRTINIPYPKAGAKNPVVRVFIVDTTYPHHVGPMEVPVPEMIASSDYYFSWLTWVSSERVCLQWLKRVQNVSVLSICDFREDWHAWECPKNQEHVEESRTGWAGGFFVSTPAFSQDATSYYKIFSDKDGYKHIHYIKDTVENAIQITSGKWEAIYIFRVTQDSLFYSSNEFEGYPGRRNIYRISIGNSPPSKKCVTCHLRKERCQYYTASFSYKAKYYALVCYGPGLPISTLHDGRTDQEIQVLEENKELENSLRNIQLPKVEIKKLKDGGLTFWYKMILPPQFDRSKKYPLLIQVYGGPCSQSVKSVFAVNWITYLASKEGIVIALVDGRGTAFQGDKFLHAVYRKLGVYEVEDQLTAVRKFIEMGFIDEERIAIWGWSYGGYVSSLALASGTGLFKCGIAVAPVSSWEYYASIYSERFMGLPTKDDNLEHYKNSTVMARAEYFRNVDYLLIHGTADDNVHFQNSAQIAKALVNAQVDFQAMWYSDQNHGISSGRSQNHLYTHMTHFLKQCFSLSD
Protocol: as §1
Four parameter logistic (4PL) curve fitting and pIC50 calculations were performed using ActivityBase software.

[5] = molecular target: recombinant human PREP (Homo sapiens (Human), UniProt P48147); experiment: PREP protease activity assay; type: biochemical
Sequence of recombinant human PREP (P48147 whole entry): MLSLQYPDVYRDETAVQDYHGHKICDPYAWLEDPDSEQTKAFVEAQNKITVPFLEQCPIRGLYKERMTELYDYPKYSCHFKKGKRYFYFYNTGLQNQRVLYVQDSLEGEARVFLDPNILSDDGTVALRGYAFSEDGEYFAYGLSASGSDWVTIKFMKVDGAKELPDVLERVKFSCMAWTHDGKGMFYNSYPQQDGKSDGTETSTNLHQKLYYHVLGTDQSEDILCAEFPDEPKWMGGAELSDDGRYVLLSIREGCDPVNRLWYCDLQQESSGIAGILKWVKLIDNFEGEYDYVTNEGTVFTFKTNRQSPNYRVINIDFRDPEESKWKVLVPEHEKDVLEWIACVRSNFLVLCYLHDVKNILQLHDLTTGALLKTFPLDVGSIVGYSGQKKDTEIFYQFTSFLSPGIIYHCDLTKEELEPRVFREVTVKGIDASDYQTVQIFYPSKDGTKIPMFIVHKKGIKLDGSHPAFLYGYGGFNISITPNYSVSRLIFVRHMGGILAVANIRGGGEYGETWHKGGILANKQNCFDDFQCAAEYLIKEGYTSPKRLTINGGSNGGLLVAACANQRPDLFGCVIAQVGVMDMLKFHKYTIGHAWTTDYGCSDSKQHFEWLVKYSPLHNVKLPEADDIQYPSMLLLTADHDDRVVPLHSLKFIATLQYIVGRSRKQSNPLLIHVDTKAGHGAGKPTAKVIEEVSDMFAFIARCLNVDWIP
Protocol: (§2) The PREP activity assay was performed using the FACS buffer (PBS including 1% FBS, Sigma-Aldrich, Cat #D8537). […] The DPP4 activity assay was performed in DPP assay buffer (25 mM Tris, pH 8.0). […] Four parameter logistic (4PL) curve fitting and pIC50 calculations were performed using ActivityBase software.

[6] = molecular target: Recombinant human DPP4 (Homo sapiens (Human), UniProt P27487); experiment: DPP4 protease activity assay; type: biochemical
Sequence of Recombinant human DPP4 (P27487 whole entry): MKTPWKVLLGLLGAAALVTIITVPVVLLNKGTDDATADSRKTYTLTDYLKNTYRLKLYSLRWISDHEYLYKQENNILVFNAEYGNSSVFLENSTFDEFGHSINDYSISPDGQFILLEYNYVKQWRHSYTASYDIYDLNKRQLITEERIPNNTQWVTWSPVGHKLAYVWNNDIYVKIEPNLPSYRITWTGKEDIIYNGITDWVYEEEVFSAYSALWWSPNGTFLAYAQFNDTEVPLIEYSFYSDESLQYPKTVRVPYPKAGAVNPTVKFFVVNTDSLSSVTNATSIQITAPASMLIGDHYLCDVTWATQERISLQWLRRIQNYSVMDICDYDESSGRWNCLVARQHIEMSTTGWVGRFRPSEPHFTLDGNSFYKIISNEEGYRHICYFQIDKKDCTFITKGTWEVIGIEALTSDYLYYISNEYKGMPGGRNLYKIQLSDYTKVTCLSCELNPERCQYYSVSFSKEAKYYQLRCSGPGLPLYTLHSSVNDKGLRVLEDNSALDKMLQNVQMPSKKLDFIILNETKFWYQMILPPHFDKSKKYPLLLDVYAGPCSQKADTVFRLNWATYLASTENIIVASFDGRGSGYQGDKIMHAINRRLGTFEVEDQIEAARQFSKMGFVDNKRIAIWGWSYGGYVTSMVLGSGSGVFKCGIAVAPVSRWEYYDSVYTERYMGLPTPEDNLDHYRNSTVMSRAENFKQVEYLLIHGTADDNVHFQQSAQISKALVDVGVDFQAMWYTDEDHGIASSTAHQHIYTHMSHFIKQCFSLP
Protocol: as §2

[7] = Plasma stability assay (mouse plasma); type: in vitro ADME; settings: 37° C., 4 h
Protocol: In order to determine the stability of selected compounds of the invention in human and mouse plasma, a plasma stability assay was carried out. Such plasma stability assay measures degradation of compounds of the present invention in blood plasma. This is an important characteristic of a compound as compounds, with the exception of pro-drugs, which rapidly degrade in plasma, generally show poor in vivo efficacy. […] The stability is sufficient for the diagnostic, therapeutic and theragnostic use of these compounds according to the present invention.
The plasma stability samples were prepared by spiking 50 μl plasma aliquots (all sodium citrate 3.8%) with 1 μL of a 0.5 mM compound stock solution in DMSO. After vortexing, the samples were incubated in a Thermomixer at 37° C. for 4 or 6 hours. After incubation, the samples were stored on ice until further treatment. All samples were prepared in duplicates.
A suitable internal standard was added to each sample (1 μL of a 0.5 mM stock solution in DMSO). Protein precipitation was performed using two different methods depending on the compound conditions as indicated in Table 7. • A) 250 μL of acetonitrile containing 1% trifluoroacetic acid was added. […] After incubation at room temperature for 30 min, the precipitate was separated by centrifugation. To 100 μL of the supernatant 10 μL of 1% formic acid was added followed by further incubation at 60° C. for 10 min to complete the formation of the zinc chelate, if the compound contains a free DOTA moiety.
The determination of the analyte in the clean sample solutions was performed on an Agilent 1290 UHPLC system coupled to an Agilent 6530 Q-TOF mass spectrometer. The chromatographic separation was carried out on a Phenomenex BioZen XB-C18 HPLC column (50×2 mm, 1.7 μm particle size) with gradient elution using a mixture of 0.1% formic acid in water as eluent A and acetonitrile as eluent B (2% B to 41% in 7 min, 800 μL/min, 40° C.). Mass spectrometric detection was performed in positive ion ESI mode by scanning the mass range from m/z 50 to 3000 with a sampling rate of 2/sec.
From the mass spectrometric raw data, the ion currents for the double or triple charged monoisotopic signal was extracted for both, the compound and the internal standard.
Quantitation was performed by external matrix calibration with internal standard using the integrated analyte signals.
The result is stated as “% intact compound remaining after 4 h or 6 h” and means that from the amount of material at the start of the experiment the stated percentage is detected as unchanged material at the end of the experiment by LC-MS quantification. Since all compounds are more than 50% intact after at least 4 h they are considered as stable enough for diagnostic and therapeutic applications.

[8] = tested on: HT-29 cells; experiment: Stability in the presence of tumor cells (HT-29), FAP IC50 of supernatants; type: in vitro ADME, human
Protocol: Cells were cultured in McCoys's 5A modified medium (Biochrom, #F1015) including 10% fetal bovine serum (FBS), 2 mM L-glutamine, 100 U/ml penicillin and 100 μg/mL streptomycin (growth medium). […] 1 mL of the cell suspension were seeded in 24-well plates and incubated overnight at 37° C. and 5% CO2. The next day, cells were washed twice and growth medium was exchanged against DMEM without phenol red (Biochrom, #F0475) including 2 mM L-glutamine. Test compound was diluted in DMEM without phenol red (Biochrom, #F0475) including 2 mM L-glutamine. 400 μL of a 10 μM solution of the test compound was incubated for 24 hours at 37° C. and 5% CO2 in the presence of cells as well as in control wells (without cells) of the same 24-well plate.
25 μL of a 30 μM substrate solution, diluted in assay buffer, was added. All solutions were equilibrated at 37° C. prior to use. […] RFU/sec was calculated by SoftMax Pro software and plotted against test compound concentration. Four parameter logistic (4PL) curve fitting and IC50/pIC50 calculations were performed using GraphPad Prism 9.1 software.
The stability of exemplary compounds was further assessed in the presence of a variety of human cell lines from different tissue origins. […] Compounds were diluted in DMEM without phenol red (Biochrom, #F0475) including 2 mM L-glutamine. 400 μL of a 10 μM solution of the test compound was incubated for 24 hours at 37° C. and 5% CO2 in the presence of cells as well as in control wells (without cells) of the same 24-well plate. IC50/pIC50 determination of the supernatants was performed as described above.

[9] = molecular target: HEK-FAP cells (HEK293 cells engineered to express the human FAP) (Homo sapiens (Human), UniProt Q12884); experiment: LigandTracer assay with 111In-labeled compounds; type: binding; settings: 111In-labeled compound
Protocol: HEK293 cells (human embryonic kidney cells) were engineered to express the human FAP. […] Cell concentrations were adjusted to 3×10^5 mL^−1, and 3.000 μL of the suspension was dispensed into a poly-lysine-coated, clear cell dish (10 cm). Approximately 24 hours after re-seeding, the medium was replaced by assay medium (Ham's medium with 20 mM HEPES) containing 1% FCS. The dish was placed in the LigandTracer® device and a baseline measurement was obtained using the LigandTracer® Control software (version 2.4). […] To determine the dissociation rate (kd) the cells were washed and subsequently incubated with fresh assay medium for several hours.

Sequence of FAP-expressing human WI-38 fibroblasts (Q12884 whole entry): as the sequence (Q12884 whole entry) above

| Structure (SMILES) | pIC50 (FACS) [1] | pIC50 (Activity) [2] | pKD (Biacore) ([3]; SPR) | HL [min] (Biacore) [3] | pIC50 (mouseFAP) [4] | pIC50 (PREP) [5] | pIC50 (DPP4) [6] | % intact compound remaining after incubation, Mouse plasma [7] | pIC50 (incubation in cell medium w/o HT-29) ([8]; 10 μM compound, 24 hours at 37° C. in control wells without cells, supernatant tested on recombinant human FAP) | pIC50 (incubation in the presence of HT-29 cells) ([8]; 10 μM compound, 24 hours at 37° C. with HT-29 cells, supernatant tested on recombinant human FAP) | IC50 [1] | IC50 ([2]; read-out: pIC50 (Activity) (converted)) | Kd ([3]; SPR, read-out: pKD (Biacore) (converted)) | IC50 ([8]; 10 μM compound, 24 hours at 37° C. with HT-29 cells, supernatant tested on recombinant human FAP, read-out: pIC50 (incubation in the presence of HT-29 cells) (converted)) | IC50 ([8]; HT-29, 10 μM compound, 24 hours at 37° C. in control wells without cells, supernatant tested on recombinant human FAP, read-out: pIC50 (incubation in cell medium w/o HT-29) (converted)) | Residual activity after incubation with HT-29 cells for 24 hours (%) [8] | HL (half-life) [9] | Kd [9] |
| --- | --- | --- | --- | --- | --- | --- | --- | --- | --- | --- | --- | --- | --- | --- | --- | --- | --- | --- |
| O=C(NCC(=O)N1CCC[C@H]1C(=O)c1ncco1)c1ccnc2ccccc12 [Compound 3BP-3208] | 7.9 | 8.2 | 8.6 | 0.6 min |  | 9.2 | <6 | 92% |  |  |  |  |  |  |  |  |  |  |
| O=C(O)CN1CCN(CC(=O)O)CCN(CC(=O)NCCCS(=O)(=O)c2ccc(-c3ccc4nccc(C(=O)NCC(=O)N5CCC[C@H]5C(=O)c5nc6ccccc6o5)c4c3)cc2)CCN(CC(=O)O)CC1 [Compound 3BP-3581, (S)-2,2′,2″-(10-(2-(3-(4-(4-(2-(2-(benzo[d]oxazole-2-carbonyl)pyrrolidin-1-yl)-2-oxoethylcarbamoyl)quinolin-6-yl)phenylsulfonyl)propylamino)-2-oxoethyl)-1,4,7,10-tetraazacyclododecane-1,4,7-triyl)triacetic Acid] |  |  |  | 120 min |  |  |  |  |  |  | 1.58 nM | 1.26 nM | < 0.0316 nM | 2 nM | 2 nM | >95% | 5.75 ± 3.63 h | 0.0794 nM |
| O=C(O)CN1CCN(CC(=O)O)CCN(CC(=O)N2CCN(CCCOc3ccc4nccc(C(=O)NCC(=O)N5CCC[C@H]5C(=O)c5nc6ccccc6o5)c4c3)CC2)CCN(CC(=O)O)CC1 [Compound 3BP-4808] |  |  | >10.5 | >150 min |  |  |  |  | 8.6 | 8.6 |  |  |  |  |  | >95% | 0.333 ± 0.083 h |  |

Now from value to compound, other results behind:

| pIC50 (FACS) [1] | pIC50 (Activity) [2] | pKD (Biacore) ([3]; SPR) | HL [min] (Biacore) [3] | pIC50 (mouseFAP) [4] | pIC50 (PREP) [5] | pIC50 (DPP4) [6] | % intact compound remaining after incubation, Mouse plasma [7] | pIC50 (incubation in cell medium w/o HT-29) ([8]; 10 μM compound, 24 hours at 37° C. in control wells without cells, supernatant tested on recombinant human FAP) | pIC50 (incubation in the presence of HT-29 cells) ([8]; 10 μM compound, 24 hours at 37° C. with HT-29 cells, supernatant tested on recombinant human FAP) | Structure (SMILES) | IC50 [1] | IC50 ([2]; read-out: pIC50 (Activity) (converted)) | Kd ([3]; SPR, read-out: pKD (Biacore) (converted)) | IC50 ([8]; 10 μM compound, 24 hours at 37° C. with HT-29 cells, supernatant tested on recombinant human FAP, read-out: pIC50 (incubation in the presence of HT-29 cells) (converted)) | IC50 ([8]; HT-29, 10 μM compound, 24 hours at 37° C. in control wells without cells, supernatant tested on recombinant human FAP, read-out: pIC50 (incubation in cell medium w/o HT-29) (converted)) | Residual activity after incubation with HT-29 cells for 24 hours (%) [8] | HL (half-life) [9] | Kd [9] |
| --- | --- | --- | --- | --- | --- | --- | --- | --- | --- | --- | --- | --- | --- | --- | --- | --- | --- | --- |
| 8.8 | 9.2 | 10.1 | 29 min | 9 | <6 | 6.1 | 78% |  |  | CS(=O)(=O)c1cccc(-c2ccc3nccc(C(=O)NCC(=O)N4CC(F)(F)C[C@H]4C#N)c3c2)c1 [Compound 3BP-3126] |  |  |  |  |  |  |  |  |
| 8.7 | 9.1 | 10.1 |  | 8.9 | <6 | <6 | >95% |  |  | CS(=O)(=O)c1cccc(-c2ccc3c(C(=O)NCC(=O)N4CC(F)(F)C[C@H]4C#N)ccnc3c2)c1 [Compound 3BP-3127] |  |  |  |  |  |  |  |  |
| 8.2 | 8.8 | 9.2 | 4 min |  | 6.1 | <6 | >95% |  |  | CS(=O)(=O)c1ccc(-c2ccc3c(C(=O)NCC(=O)N4CCC[C@H]4C#N)ccnc3c2)cc1 [Compound 3BP-3128] |  |  |  |  |  |  |  |  |
